Measurements: patent US20210371463A1, “Modified Netrin-1 Peptides and Compositions for Cardioprotection” (The Regents of the University of California, priority 2018, published 2021)
Bridge positions count the residues as written; N and C are the ends. Ends that are not written are not given here. mini‑PEG = diethylene glycol

System: mouse hearts subjected to ischemia/reperfusion (I/R) injury
Assay: Langendorff perfusion ischemia/reperfusion (I/R) injury, infarct size analysis (TTC staining)
Design: % MI Reduction: concentration or dose not given beside the values
Details: for % MI Reduction: vs. I/R Control; for Infarct size: fragments of prior art peptides, Control I/R 37.6±1.3%, Mean±SEM, p<0.001; for % Improvement in MI Reduction: modified peptide vs. closest prior art peptide (V1-9aa, V2-10aa or V3-11aa)
Method: Male C57BL/6J mice (8-12 weeks old) were obtained from the Charles River Laboratories (Wilmington, Mass., USA). After anesthetized with intraperitoneal pentobarbitone (60 mg/kg), mouse hearts were harvested immediately and the aortas were cannulated with a 20-gauge stainless steel blunt needle and transferred to the Langendorff rig and perfused retrograde instantly with modified Krebs-Henseleit buffer (KHB) for 30 minutes as previously described. See Bouhidel et al. Front Biosci (Landmark Ed) 2014; 19:566-570, and Zhang et al., J Mol Cell Cardiol. 2010; 48:1060-1070. Then hearts were pre-perfused for 45 minutes with or without netrin-1 (100 ng/ml), or different peptide fragments at the same molar concentration 1.47 nmol/L as netrin-1, prior to being subjected to ischemia/reperfusion (I/R) injury (a 20-minute global ischemia followed by a 60-minute reperfusion with or without netrin-1 or different peptide fragments). Hearts were then harvested for analyses of infarct size. For post-conditioning treatment with peptide fragments, hearts underwent 40 minutes of KHB perfusion, 20 minutes of global ischemia, and a 60-minute reperfusion with different peptide fragments.
At the end of I/R protocol, hearts were sliced perpendicular to the long-axis of the heart at 1 mm intervals and stained with 1% triphenyl tetrazolium chloride (TTC) in PBS for 10 minutes at room temperature. After washing with PBS once, sections of the hearts will be fixed in 10% formalin overnight. The heart slices were then digitally photographed for planimetry using NIH Image 1.62. Infarct size is expressed as an infarct-to-risk zone ratio (the risk zone is the whole ventricular volume in this global ischemic model).
Densitometric data of western blotting was obtained by software Image J. Grouped data was analyzed by software Gradpad Prism δ. All values are expressed as Mean±SEM. Comparisons of more than two groups were performed using a one way ANOVA analysis with Newman-Keuls test as a post-hoc test. Statistical significance is set as p<0.05.

[1] = Table 1, prior art peptides, I/R Control 37.6
[2] = Table 2, modified netrin-1 peptides, I/R Control 43.1625, p < 0.001 vs. Control
[3] = Table 2, modified netrin-1 peptides

Substance | Infarct Size Mean (%) [1] | % MI Reduction (Table 1, prior art peptides) | Infarct size | Infarct Size Mean (%) [2] | % MI Reduction [3] | % Improvement in MI Reduction
CDCRHNTAG (not fully specified (bridges); cysteine pairing not given here) [V1-9aa, reference compound] | 16.8% | 55% | 16.8±2.2% | – | – | –
(mini-PEG)-CLNCRHNTAG ({mini‑PEG}-CLNCRHNTAG; cysteine pairing not given here) [V2P] | – | – | – | 18.3315% | 58% | (58 − 51)/51 = 14%
TDCRHNTAG [V1T] | – | – | – | 15.4650% | 64% | (64 − 55)/55 = 16%
CLNCRHNTAG (Peptide based on human Netrin-1 sequence) [V2-10aa, reference compound] | 18.6% | 51% | 18.6±1.7% | – | – | –
(mini-PEG)-CPCKDGVTIGIT ({mini‑PEG}-CPCKDGVTIGIT; cysteine pairing not given here) [V3P] | – | – | – | 12.9700% | 70% | –
CPCKDGVTGIT (Peptide based on human Netrin-1 sequence) [V3-11aa, reference compound] | 16.7% | 56% | 16.7±3.0% | – | – | –
CDCRHNTAG (disulfide 1-3) [V1C] | – | – | – | 11.2700% | 74% | (74 − 55)/55 = 35%
(mini-PEG)-CDCRHNTAG ({mini‑PEG}-CDCRHNTAG; cysteine pairing not given here) [V1P] | – | – | – | 10.0100% | 77% | (77 − 55)/55 = 40%
SDCRHNTAG (Peptide based on human Netrin-1 sequence) [V1S] | – | – | – | 12.7750% | 71% | (71 − 55)/55 = 29%
